Measurements published in US4256883A, “Pyridoza prostacyclin analogues and N-oxides thereof” (Research Corporation, priority 1979, dated 1981).
Entries after “also recorded” stand apart in the source; their conditions may differ. Like-named read-outs stand apart in the source and are kept apart here. Values belong to the compound of their own block, whether it stands above or below them.

Experiments:
[1] = test system: human and rabbit citrated platelet-rich plasma; assay: Effects on platelet aggregation (citrated platelet-rich plasma, chronolog aggregometer, 37°); assay type: cell-based; conditions: for Biological Activity: Platelet Aggregation (in words): inhibition of aggregation induced by 2 uM ADP, human and rabbit platelet-rich plasma, 37°
Description: Effects of prostacyclin analogs on platelet aggregation were evaluated using human and rabbit citrated platelet-rich plasma in a chronolog aggregometer at 37°.

[2] = test system: isolated perfused cat coronary arteries; assay: Effects on isolated perfused cat coronary arteries (perfusion pressure); conditions: for Biological Activity: Cat Coronary Artery (in words): isolated perfused right coronary artery, 37° C., Krebs-Henseleit
Description: Effects of prostacyclin analogs on isolated perfused cat coronary arteries were measured as follows.
Cats of either sex (2.5-3.5 kg) were anesthetized with sodium pentobarbital (30 mg/kg) given intravenously. […] A 20-gauge stainless steel cannula was inserted into the right coronary artery via the coronary ostium. Distal to the cannula, approximately 1 cm of coronary artery was dissected free of surrounding tissue. The section of right coronary artery with the cannula in place was excised from the heart and immediately transferred to a constant flow perfusion apparatus.
The perfusion apparatus consists of a reservoir containing 20 ml of warm (37° C.) oxygenated (95% O2 +5% CO2) K-H solution which bathes the coronary artery and serves as recirculating perfusate. An increase in perfusion pressure indicates vasoconstriction, whereas a decrease in perfusion pressure signifies vasodilation. Following an initial 1 hr. equilibrium period, vascular responsiveness was established by adding 25 mM KCl. After washing with fresh K-H solution for 20-30 mins., the preparation achieved a relatively constant low basal tone. […] Fresh K-H dilutions of stock prostacyclin analog concentrations were added to the perfusate reservoir in 0.1-0.2 ml volumes.

[3] = test system: blood platelet aggregation; conditions: background statement, cited from earlier work
[4] = background; Bundy, Tetrahedron Letters, 1371 (1978); cited from earlier work
blood vessels / arteries = conditions: background statement; cited from earlier work
[5] = test system: blood platelets and arteries; conditions: prior-art analogues, comparison by inventors; cited from earlier work
[6] = Stability of free acid XXIV in aqueous solutions at 25° C.; assay type: physicochemical
Description: Free acid XXIV was stable in aqueous solutions at 25° C. for at least 30 days.

[7] = number in parentheses, not explained, natural prostacyclin = 1

t1/2 Saline (25°): > 24 h
Compound: 6, 9-pyridaza prostacyclin, N-oxides [N-oxides XXV]
Biological Activity: Platelet Aggregation (in words) [1]: Small effect
Biological Activity: Cat Coronary Artery (in words) [2]: Small effect

Compound: 7,8-dihydro-6,9-pyridaza prostacyclin [XXIII]
Biological Activity: Platelet Aggregation (in words) [1]: Inhibitor (Potent)
Biological Activity: Platelet Aggregation, number in parentheses [1, 7]: 0.1
Biological Activity: Cat Coronary Artery (in words) [2]: Dilator (Potent)
Biological Activity: Cat Coronary Artery, number in parentheses [2, 7]: 0.1

Compound: CCCCC[C@H](O)/C=C/[C@@H]1[C@H]2CC(CCCCC(=O)O)=N[C@H]2C[C@H]1O [IV]
effect on blood platelet aggregation (in words) [3]: potency in inhibiting platelet aggregation
stability (in words) [4]: high stability

half-life (t1/2 in saline at 25°): 0.0333 h
Compound: CCCCC[C@H](O)/C=C/[C@@H]1[C@H]2C/C(=C/CCCC(=O)O)O[C@H]2C[C@H]1O [Natural prostacyclin, 6,9α-oxido-11α,15α-dihydroxyprosta (Z)5, E(13)-dienoic acid]
Biological Activity: Platelet Aggregation (in words) [1]: Inhibitor (Potent)
Biological Activity: Cat Coronary Artery (in words) [2]: Dilator (Potent)
effect on blood platelet aggregation (in words) ([3]; listed as Prostacyclin): most potent inhibitor of blood platelet aggregation of all the prostaglandins discovered to date
effect on blood platelet aggregation (in words) ([3]; listed as prostacyclin): destroys platelet aggregates after they have formed
effect on blood vessels / arteries (in words) (blood vessels / arteries): powerful action as a dilator of blood vessels

Compound: CCCCC[C@H](O)/C=C/[C@H]1O[C@H]2C[C@H](O2)[C@@H]1C/C=C\CCCC(=O)O [Thromboxane A2]
effect on blood platelet aggregation (in words) [3]: causes platelet aggregation
effect on blood vessels / arteries (in words) (blood vessels / arteries): powerful constrictor of arteries

Compound: CCCCC[C@H](O)/C=C/[C@@H]1[C@H]2CC(CCCCC(=O)O)O[C@H]2C[C@H]1O (stereo partly shown) [VI, dihydroprostacyclin]
biological activity relative to prostacyclin (in words) [5]: somewhat less, active; also recorded: less biological activity

Compound: CCCCC[C@H](O)/C=C/[C@@H]1[C@H]2CC(/C=C/CCC(=O)O)O[C@H]2C[C@H]1O (stereo partly shown) [VII, (4E)--isoprostacyclin]
biological activity relative to prostacyclin (in words) [5]: somewhat less, active; also recorded: less biological activity

Compound: CCCCC[C@H](O)/C=C/[C@@H]1[C@H]2CCC(CCCC(=O)O)=N[C@H]2C[C@H]1O [V]
effect on blood platelet aggregation (in words) [3]: potency in inhibiting platelet aggregation
stability (in words) [4]: high stability

Stability in aqueous solutions (stable for at least) [6]: at least 30 days
half-life (t1/2 in saline at 25°): > 24 h
Compound: CCCCC[C@H](O)/C=C/[C@@H]1c2cc(CCCCC(=O)O)nnc2C[C@H]1O [XXIV, 6,9-pyridaza prostacyclin, free acid]
Biological Activity: Platelet Aggregation (in words) [1]: Inhibitor (Potent)
Biological Activity: Cat Coronary Artery (in words) [2]: Dilator (Potent)
